Patent US11358950B2, “SMAC mimetics used as IAP inhibitors and use thereof” (CHIA TAI TIANQING PHARMACEUTICAL GROUP CO., LTD., priority 2017, dated 2022)
pIC50: −log10 of the molar value.

Key:
[1] = biological target: T1, cIAP1 BIR3 (Homo sapiens, UniProt Q13490); test: Binding experiment of cIAP1 BIR3 (fluorescence polarization); details: 20 nM cIAP1 BIR3, 5 nM probe ARPFAQ-K(5-FAM)-NH2, 60 min
T1 construct: covering amino acids 258 to 363; GST; His; purchased RBC APT-11-370; host or cells: E. coli
Description: (§1) Buffer system for the test (a buffer for cIAP1 BIR3 or XIAP BIR3): 100 mM potassium phosphate, pH 7.5; 0.1% BSA; 0.005% Triton X-100; and 1% dimethyl sulfoxide.
(§2) Probe: ARPFAQ-K(5-FAM)-NH2.
cIAP1-BIR3-his: RBC Cat #APT-11-370, the BIR3 domain of human cIAP1 (covering amino acids 258 to 363; cIAP1 BIR3), as a GST-fusion protein expressed and purified from E. coli.
(§3) Reaction conditions: 5 nM ARPFAQ-K(5-FAM)-NH2, 20 nM cIAP1 BIR3 and 30 nM XIAP BIR3.
(§4) First, a fresh buffer for cIAP1 BIR3 or XIAP BIR3 was prepared, a cIAP1 BIR3 or XIAP BIR3 solution (2-fold diluted) was added thereto, and then a compound to be tested which had been dissolved in 100% DMSO was added into the buffer solution containing cIAP1 BIR3 or XIAP BIR3 by an acoustic technique. Thereafter, the probe (2-fold diluted) was added, and the resultant was mixed and incubated in the dark at room temperature for 60 minutes. The fluorescence polarization was measured and the mP value was calculated. Finally, the IC50 value was obtained.

[2] = biological target: T2, XIAP BIR3 (Homo sapiens, UniProt P98170); test: Binding experiment of XIAP BIR3 (fluorescence polarization); details: 30 nM XIAP BIR3, 5 nM probe ARPFAQ-K(5-FAM)-NH2, 60 min
T2 construct: covering amino acids 255 to 356; GST; His; purchased RBC APT-11-374; host or cells: E. coli
Description: as §1, §2
XIAP-BIR3-his: RBC Cat #APT-11-374, the BIR3 domain of XIAP (covering amino acids 255 to 356; XIAP BIR3), as a GST-fusion protein expressed and purified from E. coli.
as §3, §4

[3] = system: MDA-MB-231 cells; test: In-vitro cell viability test (CellTiter-Glo, 7 days); type: cell-based; details: Homo sapiens, 168 h, 7 days incubation
Description: RPMI 1640 medium (Invitrogen-22400089); fetal bovine serum (Invitrogen-10099141); Trypsin, 0.05% (1×) with EDTA 4Na (Invitrogen-25300062); luminescent cell viability assay kit (Promega-G7573); Dulbecco's phosphate buffered saline (HyClone-SH30028.01B); and 384-well plate (Corning-6007680). Envision Multi-label Analyzer.
1. 30 μL of MDA-MB-231 cell suspension, which contained 250 MDA-MB-231 cells, was added into the wells of a 384-microwell plate.
2. 20 μL of a test compound (the test compounds were formulated at a high concentration of 10 μM, the test compounds were subjected to a 5-fold gradient dilution, and each compound was diluted to 10 concentration gradients) was added, and then the cell plate was put back into a carbon dioxide incubator to be incubated for 7 days.
3. The cell plate was kept flat at room temperature for 30 minutes.
4. 20 μL of a Promega CellTiter-Glo reagent was added into each well of the cell plate.
5. After 10 minutes, the Envision Multi-label Analyzer was used for data reading.

T2 sequence (P98170 255-356): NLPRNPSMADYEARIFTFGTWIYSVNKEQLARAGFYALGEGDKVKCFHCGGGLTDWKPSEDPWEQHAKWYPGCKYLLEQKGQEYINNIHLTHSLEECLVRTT
T1 sequence (Q13490 258-363): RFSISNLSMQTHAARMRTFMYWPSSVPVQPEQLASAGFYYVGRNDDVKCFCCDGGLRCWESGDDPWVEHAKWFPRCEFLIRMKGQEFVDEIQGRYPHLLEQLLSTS

Compound | pIC50 [1] | pIC50 [2] | pIC50 [3]
CN[C@@H](C)C(=O)N[C@H](C(=O)N1CCC[C@H]1Cn1c(C)c(C(C)=O)c2cc(Cl)ccc21)C1CCCCC1 [Example 13] | 8.30 | 7.51 | 7.35
CN[C@@H](C)C(=O)N[C@H](C(=O)N1CCC[C@H]1Cn1cc(N2CCCC2=O)c2cc(Cl)ccc21)C1CCCCC1 [Example 28] | 8.28 | 7.56 | 7.44
CN[C@@H](C)C(=O)N[C@H](C(=O)N1CCC[C@H]1Cn1cc(S(C)(=O)=O)c2cc(F)ccc21)C1CCCCC1 [Example 20] | 8.96 | 7.27 | 7.12
CN[C@@H](C)C(=O)N[C@H](C(=O)N1CCC[C@H]1Cn1cc(C(=O)N(C)C)c2cc(Cl)ccc21)C1CCCCC1 [Example 23] | 8.34 | 7.67 | 7.34
CN[C@@H](C)C(=O)N[C@H](C(=O)N1CCC[C@H]1Cn1cc(N2CCN(C)C2=O)c2cc(Cl)ccc21)C1CCCCC1 [Example 29] | 8.21 | 7.50 | 6.87
CN[C@@H](C)C(=O)N[C@H](C(=O)N1CCC[C@H]1Cn1cc(C(N)=O)c2cc(F)ccc21)C1CCCCC1 [Example 22] | 8.52 | 7.38 | 7.07
CN[C@@H](C)C(=O)N[C@H](C(=O)N1CCC[C@H]1Cn1cc(C(C)=O)c2cccc(Cl)c21)C1CCCCC1 [Example 6] | 7.23 | 8.03 | 6.30
CN[C@@H](C)C(=O)N[C@H](C(=O)N1CCC[C@H]1Cn1cc(C(C)=O)c2cc(OC(F)(F)F)ccc21)C1CCCCC1 [Example 11] | 8.28 | 6.86 | 7.13
CN[C@@H](C)C(=O)N[C@H](C(=O)N1CCC[C@H]1Cn1cc(C(C)=O)c2c(Cl)cccc21)C1CCCCC1 [Example 4] | 8.59 | 7.01 | 6.66
CN[C@@H](C)C(=O)N[C@H](C(=O)N1CCC[C@H]1Cn1cc(C#N)c2cc(F)ccc21)C1CCCCC1 [Example 17] | 8.72 | 7.09 | 7.10
CN[C@@H](C)C(=O)N[C@H](C(=O)N1CCC[C@H]1Cn1cc(C(C)=O)c2cc(Br)ccc21)C1CCCCC1 [Example 7] | 8.31 | 7.35 | 7.78
CN[C@@H](C)C(=O)N[C@H](C(=O)N1CCC[C@H]1Cn1cc(S(C)(=O)=O)c2cc(Cl)ccc21)C1CCCCC1 [Example 21] | 8.38 | 7.43 | 7.79
CN[C@@H](C)C(=O)N[C@H](C(=O)N1CCC[C@H]1Cn1cc(C(C)=O)c2cc(Cl)c(F)cc21)C1CCCCC1 [Example 9] | 8.24 | 7.70 | 7.59
CN[C@@H](C)C(=O)N[C@H](C(=O)N1CCC[C@H]1Cn1cc(N2CCOC2=O)c2cc(Cl)ccc21)C1CCCCC1 [Example 30] | 8.36 | 7.67 | 7.32
CN[C@@H](C)C(=O)N[C@H](C(=O)N1CCC[C@H]1Cn1cc(C(C)=O)c2ccc(Cl)cc21)C1CCCCC1 [Example 5] | 8.59 | 7.02 | 7.12
CN[C@@H](C)C(=O)N[C@H](C(=O)N1CCC[C@H]1Cn1cc(C(C)=O)c2cc(Cl)c(Cl)cc21)C1CCCCC1 [Example 8] | 8.25 | 7.39 | 7.12
CN[C@@H](C)C(=O)N[C@H](C(=O)N1CCC[C@H]1Cn1nc(C(C)=O)c2cc(F)ccc21)C1CCCCC1 [Example 15] | 8.40 | 6.59 | 7.03
CN[C@@H](C)C(=O)N[C@H](C(=O)N1CCC[C@H]1Cn1cc(C(C)=O)c2cc(Cl)cnc21)C1CCCCC1 [Example 16] | 8.08 | 6.46 | 6.96
CN[C@@H](C)C(=O)N[C@H](C(=O)N1CCC[C@H]1Cn1cc(C#N)c2cc(Cl)ccc21)C1CCCCC1 [Example 18] | 8.29 | 7.37 | 7.65
CN[C@@H](C)C(=O)N[C@H](C(=O)N1CCC[C@H]1Cn1cc(C(C)=O)c2c(F)c(Cl)ccc21)C1CCCCC1 [Example 10] | 8.35 | 7.57 | 7.49
CN[C@@H](C)C(=O)N[C@H](C(=O)N1C[C@@H](Oc2ccccc2)C[C@H]1Cn1cc(C(C)=O)c2cc(F)ccc21)C1CCCCC1 [Example 31] | 8.43 | 7.31 | 5.84
CN[C@@H](C)C(=O)N[C@H](C(=O)N1CCC[C@H]1Cn1cc(C(=O)C(C)C)c2cc(Cl)ccc21)C1CCCCC1 [Example 24] | 8.39 | 7.72 | 7.14
CN[C@@H](C)C(=O)N[C@H](C(=O)N1CCC[C@H]1Cn1cc(-c2ccnn2C)c2cc(F)ccc21)C1CCCCC1 [Example 26] | 8.96 | 7.22 | 6.74
CN[C@@H](C)C(=O)N[C@H](C(=O)N1CCC[C@H]1Cn1nc(C#N)c2cc(Cl)ccc21)C1CCCCC1 [Example 19] | 8.34 | 6.89 | 7.37
CN[C@@H](C)C(=O)N[C@H](C(=O)N1CCC[C@H]1Cn1cc(C(C)=O)c2cc(C(F)(F)F)ccc21)C1CCCCC1 [Example 3] | 9.00 | 7.74 | 7.80
CN[C@@H](C)C(=O)N[C@H](C(=O)N1CCC[C@H]1Cn1cc(-c2ccccc2C)c2cc(F)ccc21)C1CCCCC1 [Example 25] | 8.17 | 6.68 | 5.94
CN[C@@H](C)C(=O)N[C@H](C(=O)N1CCC[C@H]1Cn1cc(C(C)=O)c2cc(F)ccc21)C1CCCCC1 [Example 1] | 8.43 | 7.13 | 7.15
CN[C@@H](C)C(=O)N[C@H](C(=O)N1CCC[C@H]1Cn1cc(-c2ccnn2C)c2cc(Cl)ccc21)C1CCCCC1 [Example 27] | 8.36 | 7.33 | 6.55
CN[C@@H](C)C(=O)N[C@H](C(=O)N1CCC[C@H]1Cn1nc(C(C)=O)c2cc(Cl)ccc21)C1CCCCC1 [Example 14] | 8.21 | 7.30 | 7.24
